From patent publication US6967219B2, “Reversing or preventing premature vascular senescence” (Cornell Research Foundation, Inc., priority 2001, dated 2005)

Assays:
[1] = tested on: Human umbilical vein endothelial cells (HUVEC); assay: SA β-galactosidase staining of HUVEC plated on glycated collagen (premature senescence); assay type: cell-based; settings: for reduction/reversal of premature senescence across dilutions of glycated collagen: HUVEC on glycated collagen at different dilutions/concentrations of glycated matrix
Experimental: Detection of SA-β-galactosidase was carried out utilizing the histochemical staining method of Dimitri et al, Proc. Natl. Acad. Sci. USA 92, 9363-9367 as modified by Van der Loo, B., et al, Exp. Cell Res. 241, 309-315 (1998). SA-β-galactosidase is a known senescence marker. […] This phenomenon occurred in 12 week and 21 week-old diabetic rats, but was undetectable in age-matched Zucker lean rats (0/24 branches examined).
Human umbilical vein endothelial cells (HUVEC) after four passages were plated on glycated collagen with the addition of 0.1 mM hydroxy-L-arginine vis-a-vis the same concentration of L-arginine. Application was made on day 1, 2 hours after plating. The extent of SA β-galactosidase staining was evaluated on days 3 and 5 of culture on a glycated or native matrix. In addition, to study the reversibility process, HUVEC were plated on glycated collagen for three days (time sufficient to induce premature senescence), and hydroxy-L-arginine was added every 12 hours, starting on day 3, and the cells were examined on day 5.

[2] = tested on: patient with end stage renal disease; assay: Example I: patient with end stage renal disease on chronic hemodialysis treated with hydroxy-L-arginine; assay type: in vivo, human; settings: 1-20 mg/kg thrice/day, 6 months later
Excerpt: (In some cases, renal biopsy will be performed, which will directly disclose the deposition of AGE in the renal parenchyma and increased proportion of SA-beta-galactosidase-stained endothelial cells). […] In addition, the patient has their arterio-veinous fistula revised 3 times due to clotting and stenosis. The patient is also complaining of a non-healing foot ulcer and intermittent claudication, both signs of peripheral vascular disease.

[3] = tested on: patient with type I (alternatively type 2) diabetes mellitus; assay: Example II: poorly controlled diabetes mellitus patient treated with hydroxy-L-arginine; assay type: in vivo, human; settings: 1-20 mg/kg thrice/day, 6 months later
Experimental: A patient with type I (alternatively, a patient with type 2) diabetes mellitus, past medical history of myocardial infarction, peripheral vascular disease, hypertension, proteinuria and non-healing foot ulcer, is receiving insulin, but patient is poorly compliant. Patient's fasting blood glucose level is 200 mg/dl. Additional laboratory findings include elevated Hgb Alc level (8.5%) as well as one of the following levels of AGE: elevated level of pentosidine (2.3 pmol/mg) or elevated level of Amadori serum albumin (41 U/ml). (In some cases, renal biopsy will be performed, which will directly disclose the deposition of AGE in the renal parenchyma and increased proportion of SA-beta-galactosidase-stained endothelial cells).

[4] = tested on: patient diagnosed with Alzheimer's disease; assay: Example III: patient with Alzheimer's disease treated with hydroxy-L-arginine; assay type: in vivo, human; settings: 1-20 mg/kg thrice/day alone or with antioxidant agents and vitamins; two years later
Experimental: A person with no known medical conditions has been experiencing a sustained loss of short-term memory for the past three years. Their CBC, electrolytes and other plasma parameters of metabolic profile are within normal range. There is no vitamin deficiency, no abnormalities in liver function tests, and no previous history of cerebro-vascular accidents. […] Based on these findings the patient is diagnosed with Alzheimer's disease. Therapy with hydroxy-L-arginine is initiated at doses 1-20 mg/kg thrice/day alone or in combination with antioxidant agents and vitamins (e.g., ascorbate, alpha-tocopherol, vitamin B6, vitamin B12, folate (folic acid), carotenoids, coenzyme Q10, phytoestrogens (including isoflavonoids), selenium, butylated hydroxytoluene (BHT), butylated hydroxyanisole (BHA) and n-3 polyunsaturated fatty acids (PUFA)).

[5] = tested on: saphenous vein endothelial cells seeded on artificial valve; assay: Example V: artificial heart valve seeded with endothelial cells cultured with hydroxy-L-arginine, implanted; assay type: in vivo, human; settings: cells cultured with 10-100 μg/ml at 35° C. for 2-3 weeks
Experimental: A person with a defective heart valve is being prepared for a surgical replacement of the valve with a prosthetic device. A saphenous vein is obtained to harvest endothelial cells for expansion and seeding on the surface of a artificial valve. Expanded endothelial cells are cultured in the medium containing hydroxy-L-arginine, 10-100 μg/ml at 35° C. for 2-3 weeks and cells are seeded on the valve in the continuous presence of the same concentration of hydroxy-L-arginine. Thus prepared, the artificial valve is implanted.

[6] = tested on: saphenous vein endothelial cells seeded on artificial vascular graft; assay: Example VI: artificial vascular graft seeded with endothelial cells cultured with hydroxy-L-arginine, implanted; assay type: in vivo, human; settings: cells cultured with 10-100 μg/ml at 35° C. for 2-3 weeks
Experimental: A person with peripheral vascular disease is undergoing an elective femoral-to-popliteal bypass surgery utilizing an artificial vascular graft. A saphenous vein is obtained to harvest endothelial cells for expansion and seed on the surface of a graft. Expanded endothelial cells are cultured in the medium containing hydroxy-L-arginine, 10-100 μg/ml at 35° C. for 2-3 weeks, and cells are seeded on the graft in the continuous presence of the same concentration of hydroxy-L-arginine. Thus prepared, the vascular graft is implanted.

[7] = tested on: patients of Examples I, II and III; assay: Example IV: other hydroxyguanidines substituted for hydroxy-L-arginine in Examples I, II and III; assay type: in vivo, human; settings: same dosage as in Examples I

Row | SMILES | reduction/reversal of premature senescence across dilutions of glycated collagen [1] | development of premature senescence (SA β-galactosidase staining) ([1]; HUVEC grown on glycated collagen, 0.1 mM added to culture medium on day 1, 2 hours after plating, evaluated days 3 and 5) | coronary symptoms [2] | foot ulcer [2] | pentosidine level after treatment ([2]; baseline 2.5 pmol/mg) [pmol/mg] | Amadori serum albumin level after treatment ([2]; baseline 40 U/ml) [U/ml] | blood pressure ([2]; baseline 175/105 mmHg) | blood pressure [3] | coronary angiogram [3] | coronary symptoms [3] | foot ulcer [3] | pentosidine level after treatment ([3]; baseline 2.3 pmol/mg) [pmol/mg] | Amadori serum albumin level after treatment ([3]; baseline 41 U/ml) [U/ml] | symptoms related to the memory loss [4] | thrombotic and atheroembolic complications [5] | thrombotic and atheroembolic complications [6] | results when substituted for hydroxy-L-arginine at the same dosage [7]
1 | N=C(N)NCCC[C@H](N)C(=O)O [L-arginine, reference compound] | failed to reverse premature senescence at higher concentrations of glycated matrix |  |  |  |  |  |  |  |  |  |  |  |  |  |  |  | 
2 | N=C(NO)NCCC[C@H](N)C(=O)O [hydroxy-L-arginine, N^ω-hydroxy-L-arginine] | able to reduce premature senescence at all dilutions of glycated collagen | completely abolished the development of premature senescence | significant subjective improvement | healing of foot ulcer | 1.7 | 30 | normalization of blood pressure | normalization of blood pressure | either no further worsening of stenotic lesions or some degree of improvement | significant subjective improvement | healing of foot ulcer | 1.7 | 30 | no deterioration and a partial improvement | less thrombotic and atheroembolic complications | less thrombotic and atheroembolic complications | 
3 | N=C(N)NO [hydroxyguanidine, Hydroxyguanidine] |  |  |  |  |  |  |  |  |  |  |  |  |  |  |  |  | Positive results similar to those obtained in Examples I, II and III
